Results from patent publication US20150071918A1, “PEPTIDES FOR THE TREATMENT OF CANCER” (H. LEE MOFFITT CANCER CENTER AND RESEARCH INSTITUTE, INC., priority 2012, published 2015).
Entries after “also recorded” stand apart in the source; their conditions may differ. *1 amine or outer side, *2 acyl side, *3 side chain or, on linkers, in order; H or OH if unused. Where a SMILES comes first, the peptide text is derived from it. Bridges are numbered along the chain shown (N, C = ends). [ ]: non-standard residue; d: D form. The star is where a group is joined. dProlinol(O-CH2CO) = O=C(COC[C@H]1CCCN1[*:1])[*:2]; N(2-Aminoethyl)Gly = O=C(CN(CCN[*:3])[*:1])[*:2]; Nle = CCCC[C@H](N)C(=O)O; Ms = CS(=O)(=O)*

How the values were obtained:
5TGM1 cells = experiment: 5TGM1 murine in vivo myeloma model, survival; parameters: species or system C57BL/KaLwRij mice; details: 5TGM1 model, dosing 3× weekly for three weeks
Procedure: FIG. 61B: 5TGM1 model: One million 5TGM1 cells were injected i.v. in C57BL/KaLwRij mice and allowed to engraft for 10 days prior to drug treatment. The dosing scheme for all drugs was 3× weekly for three weeks. Surrogate markers of morbidity include hind leg paralysis and/or lethargic behavior. All mice were euthanatized at day 100.
One million 5TGM1 cells were injected i.v. in C57BL/KaLwRij mice and allowed to engraft for 10 days prior to drug treatment. […] The dosing scheme for melphalan was twice (day 10 and day 14).

[1] = test system: PC9 and HCC4006 cells (activating EGFR mutations); experiment: MTT survival, combination index with EGFR inhibitor, 72 hours; assay type: cell-based; details: PC9 or HCC4006 cells
Procedure: FIG. 68. MTI-101 and EGFR inhibitors are synergistic in cell lines with activating EGFR mutations. Cell lines with activating EGFR mutations (PC9 and HCC4006) were treated with varying concentrations of erlotinib or MTI-101 (also referred to as HM-27) for 72 hours and survival was assayed by MTT analysis. Generated data were used to calculate combination index (CI).
(§1) FIG. 69. MTI-101 plus EGFR inhibitors are synergistic in lung cancer cell lines with EGFR activating mutations, and MTI-101 plus MEK inhibitors are synergistic in cell lines arboring activating RAS or BRAFF mutations. Values indicate average calculated combination index (CI). Additive (CI=1), synergism (CI<1) and, antagonism (CI>1). […] Cell viability was measured by the MTT assay. Data generated were used to calculate a Chou and Talalay Combination Index (CI).

H929 cells = experiment: Growth inhibition by MTT, combination index (CalcuSyn), 72 hours; assay type: cell-based, human; details: H929, 72 hours
Procedure: FIGS. 59A-59B. H929 cells were treated with varying concentrations of MTI-101 alone or in combination with either chloroquine (FIG. 59A), or bortezomib (FIG. 59B). Following 72 hours of drug treatment growth inhibition was determined by MTT analysis. Data generated were used to calculate the combination index (CI) using CalcuSyn software developed by Chou and Talalay. MTI-101 is synergistic with bortezomib (a proteosome inhibitor) and chloroquine (an inhibitor of autophagy).

[2] = test system: CD138 cells from newly diagnosed or relapsed patients; experiment: Cell death in CD138 cells enriched from bone marrow aspirates of myeloma patients, annexin V and FACS, 24 hours; assay type: cell-based, human; details: 10 μM MTI-101, 24 hours
Procedure: FIGS. 60A-60D. CD138 cells were enriched from the bone marrow aspirates of consented newly diagnosed or relapsed patients and were treated with 10 μM MTI-101, 10 μM Chloroquine or 10 nM Bortezomib or the combination of both agents. Following 24 hours of drug treatment, dell death was measured by annexin V staining and FACS analysis.

A549 cells = experiment: MTT viability, combination index with MEK inhibitor; assay type: cell-based
Procedure: as §1

U937 = experiment: HM-27 induced cell death in AML cell line, TO-PRO-3 staining and FACS; assay type: cell-based
Procedure: (§2) FIGS. 42A-42B. […] U937, HL-60 and NB4 cells were treated with varying doses of HM-27 for 24 hr and cell death was determined as described in Materials and Methods. U937 and NB4 cells (150,000) exposed to HM-27 for 24 h were collected and analyzed for Caspase 3 activity using the FITC Active Caspase-3 Apoptosis Kit (BDPharmingen) as per manufacturer's instructions. All figures are a representative of three independent experiments done in triplicates.
(§3) Cells were collected after incubation with HM-27 and analyzed for markers of cell death indicative of either apoptosis, autophagy or necrosis. BM-MNCs were isolated from marrow aspirates of AML patients and normal individuals by Ficoll-Paque centrifugation and further enriched for CD34+ cells using immunomagnetic beads. Cell death was assessed by TO-PRO-3 staining followed by FACS analysis.

NB4 = experiment: as above; assay type: cell-based
Procedure: as §2, §3

HL-60 = experiment: as above; assay type: cell-based
Procedure: as §2, §3

[3] = test system: CD34+ cells from primary AML samples; experiment: Cell death in primary CD34+ AML cells; assay type: cell-based, human; details: 24 hours
Procedure: FIG. 45. Primary CD34+AML cells are sensitive to HM-27 (MTI-101) while their normal counterparts are not. Enriched CD34+ cells from peripheral blood and bone marrow of normal individuals were treated with varying doses of HM-27 for 24 hours and then analyzed for cell death as described in the Materials and Methods.
FIG. 64. MTI-101 induces cell death in primary CD34 progenitor cells from AML patient. […] CD34-positive cells were enriched using immunomagnetic beads in primary AML samples and normal bone marrow aspirates. Cell death was measured by annexin V positivity and FACS analysis.
as §3

[4] = test system: H929 myeloma cells engrafted into the bone implant; experiment: MM SCID-Hu in vivo model, tumor burden by circulating Kappa/paraprotein levels (ELISA); parameters: species or system mice; details: H929, 8 mg/kg i.p.
Procedure: Briefly, 50,000 H929 myeloma cells were engrafted into the bone implant for 10 days prior to initiation of peptide treatment. Following tumor engraftment mice were randomized (0 time point) and injected with 8 mg/kg c-HYD1 or vehicle control (VC) daily (I.P. injections) for 14 days and every other day from day 14-28 at which time treatment stopped. Tumor burden was measured by circulating Kappa levels by ELISA weekly. N=10 mice for vehicle control (VC) and 9 mice for c-HYD1 treated.
FIG. 49. Cyclic HYD1 (MTI-101) was dosed daily at 8 mpk for the first week and then every other day for 4 weeks. The mice were bled weekly to measure paraprotein as a surrogate for tumor burden. […] Three of five vehicle-treated control animals had died by 35 days which contributes to the large SD.
FIGS. 61A-61C. MTI-101 inhibits tumor growth and increases survival in two independent myeloma in vivo models. […] FIG. 61A: Scid-hu model: Following tumor engraftment (2 weeks) mice were randomized (0 time point) and injected with 8 mg/kg MT101 or vehicle control (control) daily (i.p. injections) for 14 days and every other day from day 14-28 at which time treatment stopped. Tumor burden was measured by circulating paraprotein (K light chain) levels by ELISA weekly. […] Images were quantified utilizing Image J and tumor volume in the bone was quantified relative to the entire bone volume (n=5 tibias per group).

[5] = test system: U937 cells co-cultured with HS-5/GFP cells; experiment: Co-culture bone marrow stroma (HS-5/GFP) model of drug resistance (CAM-DR), annexin V and FACS; assay type: cell-based; details: HS-5/GFP co-culture 24 hours prior to drug
Procedure: FIGS. 63A-63C. MTI-101 induces cell death in AML cell lines without succumbing to CAM-DR. HS-5/GFP cells were co-cultured with U937 cells for 24 hours prior to addition of 100 nM Mitoxantrone (FIG. 63A) or varying concentrations of MTI-101 (FIG. 63B). […] Cell death was measured in the GFP negative AML cells using annexin V to detect dead cells and FACS analysis. Cells cultured in suspension were used as a reference sample for drug sensitivity.

H929-60 cell line = experiment: Cross-resistance in cell line selected for resistance to HYD1; assay type: cell-based; details: H929-60, selected for resistance to HYD1

In the case of `CCCC[C@@H]1NC(=O)CN(S(C)(=O)=O)CCNC(=O)[C@H](CCCCN)NC(=O)[C@H](CC(C)C)NC(=O)[C@H](CCCCN)NC(=O)[C@H](CC(C)C)NC(=O)[C@H](CCCCN)NC(=O)COC[C@H]2CCCN2C(=O)[C@H](Cc2c[nH]c3ccccc23)NC(=O)[C@H](C)NC(=O)[C@H](C(C)C)NC(=O)[C@H](C(C)C)NC1=O` [MTI-101] (Ms-[N(2-Aminoethyl)Gly][Nle]VVAW[dProlinol(O-CH2CO)]KLKLK; lactam 1-C), the “survival” value (5TGM1 cells) is reported as “increases survival in the 5TGM1 murine in vivo model”, the “combination with EGFR inhibitor Erlotinib” value [1] is reported as “Synergistic growth inhibition” and the “combination with bortezomib” value (H929 cells) is reported as “synergistic”. For the same compound, the “combination with chloroquine” value (H929 cells) was “synergistic”, the “effect of 10 nM Bortezomib on MTI-101 activity” value ([2]; newly diagnosed patients) was “increased the activity of MTI-101 in primary patient specimens obtained from newly diagnosed patients” and the “effect of 10 μM Chloroquine on MTI-101 induced cell death” value ([2]; relapsed myeloma patients) was “increased the activity of MTI-101 induced cell death in specimens obtained from relapsed myeloma patients”. For the same compound, the “activity in primary patient specimens” value ([2]; relapsed vs newly diagnosed) was “more active in specimens obtained from relapsed multiple myeloma (MM) patients”, the “combination with MEK inhibitor Selumetinib” value (A549 cells) was “Synergistic growth” and the IC50 (U937) was 38.5 µM. For the same compound, the IC50 (NB4) was 65 µM, the IC50 (HL-60) was 76.2 µM and the “cell death in primary AML CD34+ cells” value [3] was “Primary AML specimens are sensitive to MTI-101 induced cell death”. The “cell death in primary AML CD34+ cells” value ([3]; listed as HM-27) was “CD34+ cells from primary AML samples are sensitive to HM-27; also recorded: increased potency in samples from relapsed patients compared to specimens obtained from the newly diagnosed”, the “tumor growth / tumor burden” value [4] was “significantly reduces tumor growth (p<0.05 ANOVA)” and the “tumor growth / tumor burden” value ([4]; listed as c-HYD1) was “completely inhibits human MM tumor xenographs growth in SCID mice; also recorded: inhibits multiple myeloma engrafted tumor in the SCID-HU model”. For the same compound, the “sensitivity in co-culture versus suspension” value [5] was “not resistant in the co-culture bone marrow stroma model of drug resistance” and the “cross-resistance” value (H929-60 cell line) was “cross-resistance in the H929-60 cell line”.
